Measurements taken from patent publication US20250375529A1, “PHOSPHORYLCHOLINE-TUFTSIN CONJUGATE FOR TREATING OCULAR INFLAMMATION” (TARSIER PHARMA LTD., priority 2017, published 2025).

Columns and labels:
[1] = test system: THP-1 human monocyte cell line polarized to M1 macrophages; assay: IL-10 secretion by THP-1-derived M1 macrophages; assay type: cell-based; details: THP-1 M0 (100 ng/ml PMA 48 hours) polarized to M1 with 10 ng/ml LPS; TPC 400 ug/ml, dexamethasone 1 uM, IL-4 and IL-13 20 ng/ml; versus PBS control
Description: FIG. 2: TPC enhances the anti-inflammatory effect of steroids. A bar graph showing the effect of IL-4/IL-13, TPC, dexamethasone and dexamethasone+TPC on IL-10 secretion by macrophages. *-P<0.05, **-P<0.01
To test the hypothesis that a combination of steroids and TPC will have a beneficial effect on treating inflammation, cells of the THP-1 human monocyte cell line were differentiated to M0 macrophages with 100 ng/ml PMA for 48 hours and then polarized to M1 macrophages with 10 ng/ml LPS. These cells were then tested with the following compounds: PBS (negative control), IL-4 and IL-13 (20 ng/ml, positive control as they induce the cells to a M2 phenotype), TPC (400 ug/ml), dexamethasone (1 uM), and a combination of dexamethasone (1 uM) and TPC (400 ug/ml). […] Further, since TPC itself reduces pro-inflammatory cytokine secretion as well, it may be used, not just in combination, but to reduce the total dose of steroid administered.

[2] = test system: mice with dextran sodium sulfate induced colitis; details: subcutaneous (5 μg/mouse) and oral (50 μg/mouse and 250 μg/mouse) administration; cited from earlier work
lupus prone mice = details: subcutaneous (5 μg/mouse) and oral (50 μg/mouse and 250 μg/mouse) administration; cited from earlier work
[3] = test system: mice with collagen-induced arthritis; details: subcutaneous (5 μg/mouse) and oral (50 μg/mouse and 250 μg/mouse) administration; cited from earlier work
anti-CD3-activated PBMCs = assay: Effects of TPC on cytokine secretion by anti-CD3-activated PBMCs (Luminex); assay type: cell-based
Description: FIGS. 1A-1B: Very low dose TPC has a strong immunomodulatory effect. Bar graphs showing the effects of TPC at a range of doses, on anti-CD3-activated PBMCs 48 h after treatment. Secretion of pro-inflammatory cytokine TNFα (1A) and anti-inflammatory cytokine IL-10 (1B) are shown. Column statistics, one-sample t test compared to a hypothetical value of 100 was used. *-P<0.05, **-P<0.01, ***-P<0.005
The immunomodulatory effect of TPC was determined in vitro on PBMCs from healthy donors. PBMCs were harvested and allowed to adhere to culture plates. TPC at various concentrations, or PBS or dexamethasone as controls were then added and an hour later anti-CD3 stimulating antibody was added to induce an inflammatory state. 48 hours later the supernatant was harvested from the cells and cytokine levels were assayed using standard Luminex protocols. Levels of cytokine induction was interpolated from standard curves, using 5-parameter non-linear regression analyses, where y=(A+((B−A)/(1+(((B−E)/(E−A))*((x/C)^D))))). The interpolated data was then normalized to vehicle controls (anti-CD3 stimulation alone). […] Once again, the effect was greatest at very low doses, as the 0.005 μg/ml TPC dose had the strongest effect causing a 33% increase in IL-10 levels. […] (FIG. 1B).

[4] = test system: experimental mouse models of autoimmune diseases; details: in the three mouse models; cited from earlier work
[5] = 0.005 μg/ml TPC, PBMCs from healthy donors, anti-CD3 stimulation, supernatant at 48 hours, normalized to vehicle control (anti-CD3 alone)

Substance: Tuftsin-PhosphorylCholine [TPC]
- IL-10 expression [1]: strong increase
- colitis [2]: reduced
- glomerulonephritis onset (lupus prone mice): prevented
- joint damage [3]: prevented
- increase in IL-10 levels (anti-CD3-activated PBMCs; [5]): 33%
- lowering of TNFα levels (anti-CD3-activated PBMCs; [5]): 41%
- increase on IL-10 secretion as compared to dexamethasone (anti-CD3-activated PBMCs; anti-CD3-activated PBMCs, 48 hours, TPC relative to dexamethasone): 220%
- T and B regulatory cells [4]: enhanced expansion
- anti-inflammatory IL-10 [4]: increased
- proinflammatory cytokine expression such as IL-6, IL-17, TNFα, IFNγ [4]: inhibited
